Measurements reported in patent publication US20080177101A1, “Synthesis of isotopically labeled alpha-keto acids and esters” (Spectra Gases, Inc., priority 2006, published 2008).

Columns and labels:
[1] = Titration of aqueous sample 4 with sodium hydroxide, composition by HPLC; assay type: physicochemical; details: sample 4 titrated with sodium hydroxide to pH of about 6.2
Text: The molarity of sample 4 was confirmed to be 0.025M by titrating the aqueous sample with sodium hydroxide. […] It was also discovered that at pHs greater than 5.8, such as at a pH of about 6.2, some of the pyruvic acid was present in the form of a dimerized sodium salt. […] As such, it was discovered that to minimize dimmer formation, it may be necessary to control the pH of [1-^13C] pyruvate solutions, and in particular, any aqueous solution should be maintained at a pH of about 6.5 or less, more preferably 6.0 or less, and even more preferably 5.8 or less.

[2] = Shelf storage stability of [1-^13C] pyruvic acid in water, 1H and 13C NMR spectra compared; assay type: physicochemical; details: 0.025M in water
Method: Samples of isotopically labeled [1-^13C] pyruvic acid, having Formula VI and synthesized as discussed immediately below, were subjected to various conditions as depicted in Table 1, in order to establish the compound's shelf storage stability.
The resulting [1-^13C] pyruvic acid was tested as follows in Table 1:
^1H and ^13C NMR spectra of the distilled [1-^13C] pyruvic acid in water (0.025M) were acquired at the onset of the study and prior to exposing the samples to the various conditions specified in Table 1. ^1H and ^13C NMR spectra were again acquired for each of the samples after being exposed to the aforementioned conditions on a weekly basis for 12-weeks. The spectra acquired after exposure were compared visually and appeared to remain unchanged as compared with the spectra acquired prior to exposure, i.e. the spectra were as expected for [1-^13C] pyruvic acid in water. As such, it was concluded that each of the samples were shelf stable. Similarly, ^1H and ^13C NMR spectra acquired after 17-weeks of exposure remained unchanged as compared with the spectra acquired prior to exposure.

[3] = background description; cited from earlier work
[4] = Concentration studies: stability of pyruvic acid solutions in water at higher concentrations; assay type: physicochemical; design: unit not given here; details: light, about 22° C. to about 26° C.
Method: Each of these commercial solutions were subjected to light for 6-weeks at temperatures ranging from about 22° C. to about 26° C. At each of the concentrations listed below, it was discovered that the pyruvic acid solutions were stable.

[5] = Sample 3, Room temperature (about 22° C. to about 26° C.), Dark
[6] = Sample 4, Room temperature (about 22° C. to about 26° C.), Light

Row | Share of the pyruvic acid accounted for by dimerized salt [1] | Shelf stability, 12 weeks ([2]; Sample 1, −10° C., Dark) | Shelf stability, 17 weeks ([2]; Sample 1, −10° C., Dark) | Shelf stability, 12 weeks ([2]; Sample 2, 4° C., Dark) | Shelf stability, 17 weeks ([2]; Sample 2, 4° C., Dark) | Shelf stability, 12 weeks [2, 5] | Shelf stability, 17 weeks [2, 5] | Shelf stability, 12 weeks [2, 6] | Shelf stability, 17 weeks [2, 6] | Stability After 6-weeks ([4]; Concentration 2.3 in water) | Stability After 6-weeks ([4]; Concentration 2.8 in water) | Stability After 6-weeks ([4]; Concentration 3.8 in water) | Stability After 6-weeks ([4]; Concentration 5.7 in water) | Stability After 6-weeks ([4]; Concentration 11.3 in water) | Compound | Solubility in water [3]
1 | 4-6% | Stable | Stable | Stable | Stable | Stable | Stable | Stable | Stable |  |  |  |  |  | CC(=O)[13C](=O)O [[1-^13C] pyruvic acid] | 
2 |  |  |  |  |  |  |  |  |  | Stable | Stable | Stable | Stable | Stable | CC(=O)C(=O)O [Pyruvic acid, 2-oxopropanoic acid] | soluble in water
